± gives the expanded uncertainty stated by the source.
Experiment: activity coefficient (dimensionless); of the first substance listed, at infinite dilution; xn = mol fraction of the nth substance listed
Conditions: 101 kPa, Liquid, Chromatography, x1 = 0

| Structure (SMILES) | activity coefficient (318.15 K) | activity coefficient (328.15 K) | activity coefficient (338.15 K) | activity coefficient (348.15 K) | activity coefficient (358.15 K) | activity coefficient (368.15 K) | activity coefficient (298.15 K) | activity coefficient (308.15 K) |
| --- | --- | --- | --- | --- | --- | --- | --- | --- |
| Cc1cccc(C)c1 [1,3-dimethylbenzene] + CCCCCCOCn1cc[n+](C)c1.O=S(=O)([N-]S(=O)(=O)C(F)(F)F)C(F)(F)F | 1.45 ± 0.095 | 1.46 ± 0.096 | 1.47 ± 0.096 | 1.48 ± 0.097 | 1.48 ± 0.098 | 1.49 ± 0.098 |  |  |
| CC(C)=O [acetone] + CCCCCCOCn1cc[n+](C)c1.O=S(=O)([N-]S(=O)(=O)C(F)(F)F)C(F)(F)F | 0.315 ± 0.031 | 0.322 ± 0.031 | 0.328 ± 0.032 | 0.336 ± 0.032 | 0.342 ± 0.032 | 0.348 ± 0.032 | 0.3 ± 0.031 | 0.308 ± 0.031 |
| CCCO [propan-1-ol] + CCCCCCOCn1cc[n+](C)c1.O=S(=O)([N-]S(=O)(=O)C(F)(F)F)C(F)(F)F | 1.49 ± 0.1 | 1.36 ± 0.09 | 1.24 ± 0.08 | 1.15 ± 0.07 | 1.07 ± 0.07 | 0.989 ± 0.062 | 1.83 ± 0.12 | 1.64 ± 0.11 |
| c1ccccc1 [benzene] + CCCCCCOCn1cc[n+](COCCCCCC)c1.O=S(=O)([N-]S(=O)(=O)C(F)(F)F)C(F)(F)F | 0.607 ± 0.042 | 0.607 ± 0.042 | 0.606 ± 0.042 | 0.606 ± 0.042 | 0.606 ± 0.042 | 0.606 ± 0.042 | 0.608 ± 0.043 | 0.608 ± 0.043 |
| C1CCCCCCC1 [cyclooctane] + CCCCCCOCn1cc[n+](C)c1.O=S(=O)([N-]S(=O)(=O)C(F)(F)F)C(F)(F)F | 7.11 ± 0.48 | 6.74 ± 0.46 | 6.35 ± 0.43 | 6.06 ± 0.41 | 5.75 ± 0.39 | 5.48 ± 0.37 | 8.12 ± 0.55 | 7.57 ± 0.52 |
